This note sets out measurements from publication PMC12040169 (PLOS Biology, 2025).

As usually defined, the viability is a read-out of living cells in per cent, often relative to untreated cells.

Each structure is given as a SMILES string.

One data set is described as follows: in vitro. The conditions noted are these: human, hela cells, % viability.
With `CCN(CC)CCOc1c(C)cc(Cl)cc1C` [CBK262219], the viability at 28.5 h, 10 µM came to 97%. In the case of `COc1cc(/C=N/NC(=O)C(=O)Nc2ccc(C)c(C)c2)ccc1O` [CBK262225], the viability at 28.5 h, 10 µM was found to be 86%. Same read-out and setting: next, `CN1CCN(C(=O)c2ccc(Cl)c(S(=O)(=O)N3CCCCC3)c2)CC1` [CBK262228]: 94.7%; `O=C(O)CSc1nc2ccc([N+](=O)[O-])cc2s1` [CBK262232]: 88.4%.

In the case of `COc1ccccc1/C=C1/S/C(=N/Cc2ccccc2)N(Cc2ccccc2)C1=O` [CBK262234], the viability at 28.5 h, 10 µM was 99.3%. Same read-out and setting: next, `O=[N+]([O-])c1cc(C(F)(F)F)ccc1N(CCO)CCO` [CBK262238]: 94.9%; `COc1ccc(NC(=O)c2cnccn2)c(OC)c1` [CBK262240]: 105%; `O=S(=O)(Cc1ccccc1)NCc1ccccn1` [CBK262241]: 96.2%.

Take `COc1ccc2oc(=O)c(C(=O)Nc3ccc(C(=O)O)cc3)cc2c1` [CBK262242]: the viability at 28.5 h, 10 µM stood at 98.4%. Same read-out and setting: for `O=[N+]([O-])c1ccc(OCCCNCCO)cc1` [CBK262244] the value was 92.3%; for `CCOC(=O)c1c(/N=C/c2cc(I)cc(I)c2O)sc2c1CCN(Cc1ccccc1)C2` [CBK262246], 106%.

On to `CC(C)(C)c1cc(/C=N/Nc2nc3ccccc3[nH]2)cc(C(C)(C)C)c1O` [CBK262247], for which the viability at 28.5 h, 10 µM was 90.2%. On the same count and under the same terms, for `O=C(N/N=C/c1cccc(OC(=O)c2cccc(Br)c2)c1)c1ccncc1` [CBK262249] the value was 112%. The same measure, in the same setting: for `O=C1c2cc(S(=O)(=O)NCc3ccco3)ccc2-c2ccc(S(=O)(=O)NCc3ccco3)cc21` [CBK262250] the value was 98.5%.

As for `CNc1nc2ccccc2n1CC(=O)c1ccccc1` [CBK262251B], the viability at 28.5 h, 10 µM came to 96%. Consider `CO/N=C(\C(=O)O)c1cn2cccnc2n1` [CBK262252], for which the viability at 28.5 h, 10 µM was 91.5%. Same read-out and setting: for `COc1ccc(NC(=O)C(=O)N/N=C/c2ccc(C(=O)O)cc2)cc1` [CBK262255] the value was 95.5%; for `O=C(O)CCn1ncc2ccccc21` [CBK262257], 89.8%; for `CC(C)(c1ccc(Oc2ccc3c(c2)C(=O)N(c2nccs2)C3=O)cc1)c1ccc(Oc2ccc3c(c2)C(=O)N(c2nccs2)C3=O)cc1` [CBK262258], 103%. Still for that read-out and setting: next, `CN(C)c1ccc(/C=N/NC(=O)CSc2nnc(-c3ccccc3)n2-c2ccccc2)cc1` [CBK262263]: 90.2%; `COc1ccc(-c2nnc(SCC(=O)NN)n2-c2ccccc2)cc1OC` [CBK262264]: 112%. As for `COc1cc(/C=N/NC(N)=O)ccc1OC(=O)c1sc2ccccc2c1Cl` [CBK262265], the viability at 28.5 h, 10 µM was found to be 85%. The same measure, in the same setting: for `C(=N\c1nc2ccccc2n1CCN1CCOCC1)/c1ccc2c(c1)OCO2` [CBK262270] the value was 109%; for `O=C(Oc1cccc(NC(=O)c2ccco2)c1)c1cccc(S(=O)(=O)N2CCOCC2)c1` [CBK262272], 97.2%.

Consider `O=[N+]([O-])c1ccc(CNCCc2c[nH]c3ccccc23)cc1` [CBK262275], for which the viability at 28.5 h, 10 µM was 80.4%. Still for that read-out and setting: for `COc1ccc(C(=O)/C=C/Nc2ccc(S(=O)(=O)NC(=N)N)cc2)cc1` [CBK262277] the value was 84.1%; for `O=C/C(=C\Nc1ccc(S(=O)(=O)N2CCCCC2)cc1)c1nc2ccccc2o1` [CBK262281], 99.2%; for `O=C(/C=C/c1cccc([N+](=O)[O-])c1)NCCN1CCOCC1` [CBK262283], 90.5%. As for `CCc1cc2c(=O)c(-c3nc4ccccc4s3)coc2c(CN2CCCCC2)c1O` [CBK262284], the viability at 28.5 h, 10 µM came to 86.1%. As to `COc1cc(-c2nc3ccccn3c2/N=C/c2ccc(-c3ccc([N+](=O)[O-])cc3)o2)ccc1O` [CBK262288], the viability at 28.5 h, 10 µM was determined as 79.8%. As to `O=C(N/N=C\c1cccc(OC(=O)c2cccs2)c1)c1ccc([N+](=O)[O-])cc1` [CBK262289], the viability at 28.5 h, 10 µM stood at 77.3%. Still for that read-out and setting: for `CC(C)Cn1c(=O)c(C(=O)Nc2ccccc2S(N)(=O)=O)c(O)c2ccccc21` [CBK262290] the value was 93.1%; for `O=S(=O)(NCc1ccccn1)c1ccc(Br)cc1Br` [CBK262291], 93.2%; for `O=C(COc1cccc(Cl)c1)N/N=C\c1ccc(C(=O)O)cc1` [CBK262293], 102%. On the same count and under the same terms, next, `OCCNc1nc2cc(Cl)ccc2[nH]1` [CBK262295]: 101%; `O=C(N/N=C/c1cc(O)c(Br)cc1Br)c1ccncc1` [CBK262297]: 76.8%. With `O=[N+]([O-])c1ccc(C2CNC(c3ccccc3O)O2)cc1` (centres unmarked) [CBK262298], the viability at 28.5 h, 10 µM came to 94%. For `O=C(c1ccoc1)N1CCN(S(=O)(=O)c2ccc3c(c2)Cc2cc(S(=O)(=O)N4CCN(C(=O)c5ccco5)CC4)ccc2-3)CC1` [CBK262299], the viability at 28.5 h, 10 µM came out at 113%. The same measure, in the same setting: for `O=C1CCCN1CP(=O)(O)CN1CCCCC1` [CBK262302] the value was 85.6%. Regarding `COc1ccccc1/C=C/C1=NN(c2ccc(F)cc2)C(c2ccccc2OC)C1` (centres unmarked) [CBK262303], the viability at 28.5 h, 10 µM came to 81.1%. On to `O=C(O)c1cc(C(=O)O)c2ccccc2n1` [CBK262304], for which the viability at 28.5 h, 10 µM was 82.1%. On the same count and under the same terms, for `Cc1ccc(/N=N/c2c(O)c(C(=O)Nc3ccc4c(c3)c(=O)[nH]c3ccccc34)cc3ccccc23)c(Cl)c1` [CBK262306] the value was 92.7%; for `CC(=O)OC(Cn1c2ccccc2c2ccccc21)Cn1c2ccccc2c2ccccc21` [CBK262307], 104%; for `O=P(O)(CN1CCCCCC1)CN1CCCCCC1` [CBK262311], 92.1%.

With `O=P(O)(CCc1ccccn1)CN1CCCCC1` [CBK262312], the viability at 28.5 h, 10 µM was determined as 97.2%.

On to `OCCNc1nc(-c2cccnc2)nc2ccccc12` [CBK262314], for which the viability at 28.5 h, 10 µM was determined as 105%. Consider `O=c1c2cnn(-c3ccccc3)c2nc(Cc2ccccc2)n1-c1cccc2ccccc12` [CBK262316], for which the viability at 28.5 h, 10 µM is 82.1%.

Regarding `O=P(O)(CCc1ccccc1)CN1CCCCC1` [CBK262318], the viability at 28.5 h, 10 µM stood at 78.6%. The same measure, in the same setting: next, `O=C(O)CCSc1c[nH]c2ccccc12` [CBK262319]: 94.5%; `O=C(Nc1ccc(-c2ccc(NC(=O)c3ccncc3)cc2)cc1)c1ccncc1` [CBK262321]: 98.9%.

`O=P(O)(CCc1ccncc1)CN1CCCCC1` [CBK262323]: the viability at 28.5 h, 10 µM turned out to be 104%. Same read-out and setting: next, `O=C(COC(=O)c1ccc2c(c1)C(=O)N(c1cccc(Cl)c1)C2=O)c1ccc(Br)cc1` [CBK262324]: 94%.

Take `O=C(CN(c1ccccc1)S(=O)(=O)c1ccccc1[N+](=O)[O-])NC1CCCCC1` [CBK262328]: the viability at 28.5 h, 10 µM was determined as 89.3%. The same measure, in the same setting: next, `Fc1ccc(Br)cc1SCCc1ccccn1` [CBK262330G]: 86.7%. Same read-out and setting: for `O=C(Cn1nnc(-c2ccccc2Cl)n1)N/N=C/c1cn(Cc2ccc(Cl)cc2)c2ccccc12` [CBK262333] the value was 107%. Same read-out and setting: for `O=[N+]([O-])c1ccc(-c2nc3ccc(Br)cn3[n+]2[O-])cc1` [CBK262335] the value was 96.5%; for `CN1CCC(=NNC(=O)CN(c2ccc(Oc3ccccc3)cc2)S(C)(=O)=O)CC1` [CBK262338], 93.2%. As to `CSc1ccc(/C=C(\C#N)c2nn(-c3ccccc3)c(N)c2C#N)cc1` [CBK262339], the viability at 28.5 h, 10 µM worked out at 105%. Take `COc1ccc(/C=N/NC(=O)CCn2c3ccccc3c3ccccc32)cc1O` [CBK262343]: the viability at 28.5 h, 10 µM was 46%. In the case of `O=C(NCCNc1ccc([N+](=O)[O-])cc1Cl)c1ccc(F)cc1` [CBK262344], the viability at 28.5 h, 10 µM amounted to 86.6%. Still for that read-out and setting: next, `COc1ccc(CCN(C(C)=O)C2CC(=O)N(c3ccccc3)C2=O)cc1OC` (centres unmarked) [CBK262349]: 89.5%. As for `COc1cc(/C=N/NC(=O)CCn2c3ccc(Cl)cc3c3cc(Cl)ccc32)ccc1O` [CBK262351], the viability at 28.5 h, 10 µM turned out to be 112%. For the molecule `N#C/C(=C\C=C\c1ccc([N+](=O)[O-])cc1)c1nc(-c2cc3cc([N+](=O)[O-])ccc3oc2=O)cs1` [CBK262357], the viability at 28.5 h, 10 µM was 93.7%. Turning to `Cc1cc(C)n(-c2cc(C)c3ccccc3n2)n1` [CBK262358], the viability at 28.5 h, 10 µM came to 81.9%. Still for that read-out and setting: next, `O=C(O)CCSCc1ccc([N+](=O)[O-])cc1` [CBK262359]: 103%; `O=C(CSc1nc2ccccc2s1)OCC(=O)c1cccc([N+](=O)[O-])c1` [CBK262361]: 111%. In the case of `CC1(C)CC(NC(=O)C(=O)NCCc2ccc(Cl)cc2)CC(C)(C)N1` [CBK262363], the viability at 28.5 h, 10 µM came to 83.8%.

Take `O=C(O)c1ccc(S(=O)(=O)NCC2CCCO2)cc1` (centres unmarked) [CBK262364]: the viability at 28.5 h, 10 µM turned out to be 79.8%. `CCSc1nnc2c(n1)OC(C1CC=C(C)CC1)Nc1ccccc1-2` (centres unmarked) [CBK262367]: the viability at 28.5 h, 10 µM was found to be 95.5%. `N#C/C(=C\c1ccc(O)cc1)c1nc(-c2ccc3c(c2)OCO3)cs1` [CBK262370]: the viability at 28.5 h, 10 µM turned out to be 96.8%. For `O=C(O)c1ccc(/C=N/Nc2cccc3cccnc23)cc1` [CBK262372], the viability at 28.5 h, 10 µM was 74.4%. The same measure, in the same setting: next, `Cc1cccc2c1[nH]c1nc(N/N=C\c3ccc(-c4cccc([N+](=O)[O-])c4)o3)nnc12` [CBK262373]: 96%. `COc1ccc(-c2csc(/C(C#N)=C/Nc3ccc(S(=O)(=O)Nc4nccs4)cc3)n2)cc1` [CBK262374]: the viability at 28.5 h, 10 µM was determined as 94.6%. Regarding `CC(=O)Nc1ccc(N/C=C(/C#N)c2nc(-c3ccc([N+](=O)[O-])cc3)cs2)cc1` [CBK262377], the viability at 28.5 h, 10 µM is 106%. On the same count and under the same terms, next, `Cc1cccc(Nc2nc3nonc3[nH]/c2=N\N=C/c2cn(Cc3ccc(Cl)cc3Cl)c3ccccc23)c1C` [CBK262378]: 93.3%.

Still in this data set, the particulars now being: human, hela cells, % viability, bulk resorufin, single well.
In the case of `O=C1NC(=S)NC(=O)C1=NNc1ccccc1C(=O)O` [CBK262231], the viability at 28.5 h, 10 µM was found to be 99.6%.

On to `COc1ccccc1CCNCc1ccc([N+](=O)[O-])cc1` [CBK262292], for which the viability at 28.5 h, 10 µM is 93.3%.
